Test results reported in patent US8129355B2, “Ketone ligands for modulating the expression of exogenous genes via an ecdysone receptor complex” (priority 2002, dated 2012).
Like-named read-outs stand apart in the source and are kept apart here.

Target: T1, Bombyx mori EcR (VP16 fusion, switch construct CVBE) with 6XEcRE LacZ reporter (Bombyx mori, UniProt P49881)
T1 construct: expressed in transfected cells; host or cells: Human 293 kidney (HEK-293) cells, retrovirally infected, clone Z3
T1 sequence (P49881 86-606 limits assumed): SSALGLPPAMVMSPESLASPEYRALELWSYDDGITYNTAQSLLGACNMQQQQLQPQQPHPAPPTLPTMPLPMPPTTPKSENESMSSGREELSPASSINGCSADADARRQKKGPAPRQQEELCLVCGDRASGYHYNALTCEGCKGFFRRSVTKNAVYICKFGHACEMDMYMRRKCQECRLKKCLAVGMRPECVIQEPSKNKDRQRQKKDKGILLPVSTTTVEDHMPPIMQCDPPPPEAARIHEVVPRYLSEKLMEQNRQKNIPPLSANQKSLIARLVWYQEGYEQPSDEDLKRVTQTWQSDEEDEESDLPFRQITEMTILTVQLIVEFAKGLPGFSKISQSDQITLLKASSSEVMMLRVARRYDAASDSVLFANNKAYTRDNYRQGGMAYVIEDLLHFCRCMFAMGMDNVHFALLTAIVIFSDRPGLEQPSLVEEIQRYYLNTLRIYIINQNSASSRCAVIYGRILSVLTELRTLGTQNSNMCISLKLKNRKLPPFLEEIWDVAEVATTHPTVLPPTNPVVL
T1 sequence (P19793 1-462 partner): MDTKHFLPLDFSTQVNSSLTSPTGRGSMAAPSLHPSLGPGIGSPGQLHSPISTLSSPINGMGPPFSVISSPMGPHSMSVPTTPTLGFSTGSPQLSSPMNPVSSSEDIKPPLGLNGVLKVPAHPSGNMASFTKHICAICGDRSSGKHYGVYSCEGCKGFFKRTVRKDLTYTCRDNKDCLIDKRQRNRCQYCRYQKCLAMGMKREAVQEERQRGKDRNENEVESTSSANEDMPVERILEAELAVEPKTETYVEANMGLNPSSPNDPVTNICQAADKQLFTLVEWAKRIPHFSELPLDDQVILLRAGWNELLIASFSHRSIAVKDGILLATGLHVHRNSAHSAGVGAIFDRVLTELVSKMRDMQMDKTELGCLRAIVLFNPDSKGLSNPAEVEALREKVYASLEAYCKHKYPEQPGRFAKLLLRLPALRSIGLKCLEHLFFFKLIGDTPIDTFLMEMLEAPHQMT
Experiment: Z3 assay: β-galactosidase (LacZ) reporter gene fold induction in stably transformed human 293 kidney cells (clone Z3)
Type: cell-based
Outline: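 β-Galactosidase read 48 h after dosing by bioluminescent assay; ligand added at 33 μM with DMSO held at 0.03%. The cells are stable 293 clone Z3, expressing a CMV-driven VP16 fusion of Bombyx mori EcR residues 26-546 plus six EcRE copies upstream of lacZ.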

[1] = single dose 33 μM; ligand treated / DMSO treated cells
[2] = average; dose response, three-parameter logistic model; read-out: Z3 LC50
[3] = maximum fold induction at any concentration relative to that of GS-E ligand
[4] = read-out: Fold Induction Average, Z3 Assay (33 μM)
[5] = read-out: Z3 LC50; average; dose response, three-parameter logistic model
[6] = single dose 33 μM; ligand treated / DMSO treated cells; read-out: Fold Induction Average, Z3 Assay (33 μM)

Structure (SMILES) | Fold Induction Average, Z3 Assay (33 μM) [1] | CC50 [2] [µM] | Z3 Rel Max FI [3] | fold induction at 33 µM [4] | CC50 [5] [µM] | fold induction at 33 µM [6]
CCOC(=O)C(=O)N1CCCC(NC(=O)c2cccc(OC)c2C)(C(=O)c2cc(C)cc(C)c2)C1 (racemic) [Example 154] | 7 | – | – | – | – | –
COC(=O)CN1CCCC(NC(=O)c2cccc(OC)c2C)(C(=O)c2cc(C)cc(C)c2)C1 (racemic) [Example 156] | 78 | ~20 | 0.03 | – | – | –
COc1cccc(C(=O)C2(NC(=O)c3cccc(OC)c3C)CCCCC2)c1 [Example 4] | – | – | 0.54 | 233 | 1.19 | –
COc1cccc(C(=O)NC2(C(=O)c3cccc(C)c3)CCCCC2)c1C [Example 7] | – | – | 0.78 | 811 | 3.51 | –
COc1cccc(C(=O)NC2(C(=O)c3cc(C)cc(C)c3)CCCC2)c1C [Example 10] | – | 1.87 | 0.85 | – | – | 464
COc1cccc(C(=O)NC2(C(=O)c3cc(C)cc(C)c3)CCCCC2)c1C [Example 11] | – | 1.41 | 0.99 | – | – | 722
COc1cccc(C(=O)NC(C)(Cc2ccccc2)C(=O)c2cc(C)cc(C)c2)c1C (stereo not shown) [Example 12] | – | – | 0.09 | 76 | 10 | –
COc1cccc(C(=O)NC2(C(=O)c3cc(C)cc(C)c3)CC2)c1C [Example 13] | – | – | 0.22 | 293 | 20.4 | –
COc1cccc(C(=O)NC2(C(=O)c3cc(C)cc(C)c3)CCC2)c1C [Example 14] | – | 8.52 | 0.69 | – | – | 945
COc1cccc(C(=O)NC2(C(=O)c3ccc(C)cc3)CCCCC2)c1C [Example 15] | – | – | 0.70 | 921 | 3.01 | –
COc1cccc(C(=O)NC2(C(=O)c3ccc(F)c(C)c3)CCCC2)c1C [Example 17] | – | – | 0.43 | 393 | 3.47 | –
COc1cccc(C(=O)NC2(C(=O)c3ccc(F)c(C)c3)CCCCC2)c1C [Example 18] | – | – | 0.67 | 657 | 3.41 | –
COc1cccc(C(=O)NC(C)(C(=O)c2cc(C)cc(C)c2)C(C)C)c1C (stereo not shown) [Example 20] | – | – | 0.75 | 573 | 2.06 | –
CCc1c(OC)cccc1C(=O)NC1(C(=O)c2ccccc2)CCCC1 [Example 21] | – | – | 0.33 | 305 | ~15 | –
CCc1c(C(=O)NC2(C(=O)c3ccccc3)CCCC2)ccc2c1OCCO2 [Example 22] | – | – | 0.48 | 602 | ~10 | –
COc1cccc(C(=O)NC2(C(=O)c3cccc(C)c3)CCOCC2)c1C [Example 25] | – | – | 0.07 | 19 | ~20 | –
COc1cccc(C(=O)NC2(C(=O)c3cccc(C)c3)CCSCC2)c1C [Example 26] | – | – | 0.60 | 751 | ~15 | –
COc1cccc(C(=O)NC2(C(=O)c3cc(C)cc(C)c3)CCOCC2)c1C [Example 27] | – | – | 0.81 | 562 | 10 | –
COc1cccc(C(=O)NC2(C(=O)c3cc(C)cc(C)c3)CCSCC2)c1C [Example 28] | – | 1.6 | 0.98 | – | – | 1220
COc1cccc(C(=O)NC2(C(=O)c3cc(C)cc(C)c3)CCC3(CC2)OCCO3)c1C [Example 29] | – | – | 0.06 | 116 | ~15 | –
COc1ccccc1C(=O)C(C)(NC(=O)c1cccc(OC)c1C)C(C)C (stereo not shown) [Example 30] | – | – | 0.20 | 485 | ~15 | –
COc1cccc(C(=O)NC(C)(C(=O)c2cccc(C)c2)C(C)C)c1C (stereo not shown) [Example 31] | – | 8.61 | 0.47 | – | – | 312
COc1cccc(C(=O)C(C)(NC(=O)c2cccc(OC)c2C)C(C)C)c1 (stereo not shown) [Example 32] | – | – | 0.12 | 33 | 25.5 | –

Structure (SMILES) | Fold Induction Average, Z3 Assay (33 μM) [1] | CC50 [2] [µM] | Z3 Rel Max FI [3] | fold induction at 33 µM [4] | CC50 [5] [µM] | fold induction at 33 µM [6]
COc1cccc(C(=O)NC(C)(C(=O)c2ccc(C)cc2)C(C)C)c1C (stereo not shown) [Example 33] | – | ~20 | 0.05 | – | – | 31
COc1cccc(C(=O)NC(C)(C(=O)c2ccccc2)C(C)C)c1C (stereo not shown) [Example 34] | – | – | 0.04 | 66 | > 33 | –
CCC(CC)(NC(=O)c1cccc(OC)c1C)C(=O)c1ccccc1OC [Example 37] | – | – | 0.29 | 327 | 6.19 | –
CCC(CC)(NC(=O)c1cccc(OC)c1C)C(=O)c1ccc(F)cc1 [Example 38] | – | 13.7 | 0.04 | – | – | 51
COc1ccccc1C(=O)C1(NC(=O)c2cccc(OC)c2C)CCCC1 [Example 40] | – | – | 0.70 | 951 | 5.16 | –
COc1cccc(C(=O)NC2(C(=O)c3ccc(F)cc3)CCCC2)c1C [Example 42] | – | – | 0.14 | 153 | ~15 | –
COc1cccc(C(=O)NC2(C(=O)c3ccccc3C)CCCCC2)c1C [Example 44] | – | – | 0.23 | 94 | 16.8 | –
COc1ccccc1C(=O)C1(NC(=O)c2cccc(OC)c2C)CCCCC1 [Example 45] | – | – | 0.84 | 665 | 0.98 | –
COc1ccc(C(=O)C2(NC(=O)c3cccc(OC)c3C)CCCCC2)cc1 [Example 46] | – | – | 0.03 | 15 | > 33 | –
CCC(CC)(NC(=O)c1cccc(OC)c1C)C(=O)c1cccc(C)c1 [Example 48] | – | 6.61 | 0.25 | – | – | 356
CCC(CC)(NC(=O)c1cccc(OC)c1C)C(=O)c1cccc(OC)c1 [Example 49] | – | – | 0.01 | 182 | > 33 | –
CCC(CC)(NC(=O)c1cccc(OC)c1C)C(=O)c1ccc(F)c(C)c1 [Example 50] | – | – | 0.07 | 178 | 10.4 | –
CCC(CC)(NC(=O)c1cccc(OC)c1C)C(=O)c1cc(C)cc(C)c1 [Example 51] | – | 4.53 | 0.61 | – | – | 817
COc1cccc(C(=O)NC(C)(CC(C)C)C(=O)c2cccc(C)c2)c1C (stereo not shown) [Example 52] | – | – | 0.24 | 239 | 6.09 | –
COc1cccc(C(=O)C(C)(CC(C)C)NC(=O)c2cccc(OC)c2C)c1 (stereo not shown) [Example 53] | – | – | 0.11 | 112 | 23.7 | –
COc1cccc(C(=O)NC(C)(CC(C)C)C(=O)c2cc(C)cc(C)c2)c1C (stereo not shown) [Example 55] | – | – | 0.72 | 309 | 3.4 | –
COc1cccc(C(=O)NC2(C(=O)c3ccc(F)cc3)CCCCC2)c1C [Example 60] | – | – | 0.61 | 817 | ~6 | –
COc1cccc(C(=O)NC2(C(=O)c3cc(C)cc(C)c3)CCS(=O)(=O)CC2)c1C [Example 62] | – | – | 0.10 | 347 | ~15 | –
COc1cccc(C(=O)NC(C)(C(=O)c2ccccc2C)C(C)C)c1C (stereo not shown) [Example 63] | – | 17.9 | 0.26 | – | – | 453
COc1ccc(C(=O)C2(NC(=O)c3cccc(OC)c3C)CCCCC2)c(OC)n1 [Example 64] | – | – | 0.77 | 1160 | 2.62 | –
COc1cc(C(=O)C2(NC(=O)c3cccc(OC)c3C)CCCC2)cc(OC)c1C [Example 65] | 151 | 8.84 | 0.06 | – | – | –
COc1cc(C(=O)C2(NC(=O)c3cccc(OC)c3C)CCCCC2)cc(OC)c1C [Example 66] | – | – | 0.17 | 341 | 3.33 | –
